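Method: 48-hour compound exposure of cells in 96-well plates, five concentrations, linear interpolation of endpoints. At the GI50, growth is halved. TGI: concentration producing complete growth inhibition.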
Experiments:
Assay in all cases: NCI anticancer screen, dose series, 48 h; in the data active = GI50 below about 0.43 µM; inactive = the rest
A498 renal = test system: A498 renal
HOP-18 NSCLC = test system: HOP-18 NSCLC
SK-OV-3 ovarian = test system: SK-OV-3 ovarian
CAKI-1 renal = test system: CAKI-1 renal
DLD-1 colon = test system: DLD-1 colon
KM12 colon = test system: KM12 colon
HT29 colon = test system: HT29 colon
OVCAR-8 ovarian = test system: OVCAR-8 ovarian
SNB-19 CNS = test system: SNB-19 CNS
IGROV1 ovarian = test system: IGROV1 ovarian
XF 498 CNS = test system: XF 498 CNS
SN12C renal = test system: SN12C renal
LOX IMVI melanoma = test system: LOX IMVI melanoma
NCI-H226 lung = test system: NCI-H226 lung
MOLT-4 leukemia = test system: MOLT-4 leukemia
HCC-2998 colon = test system: HCC-2998 colon
M19-MEL melanoma = test system: M19-MEL melanoma
NCI-H23 lung = test system: NCI-H23 lung
KM20L2 colon = test system: KM20L2 colon
SK-MEL-5 melanoma = test system: SK-MEL-5 melanoma
HOP-62 NSCLC = test system: HOP-62 NSCLC
SNB-78 CNS = test system: SNB-78 CNS
UACC-62 melanoma = test system: UACC-62 melanoma
CCRF-CEM leukemia = test system: CCRF-CEM leukemia
A549 NSCLC = test system: A549 NSCLC
UO-31 renal = test system: UO-31 renal
RXF 393 renal = test system: RXF 393 renal
SF-268 CNS = test system: SF-268 CNS
SF-295 CNS = test system: SF-295 CNS
SW-620 colon = test system: SW-620 colon
OVCAR-3 ovarian = test system: OVCAR-3 ovarian
UACC-257 melanoma = test system: UACC-257 melanoma
M14 melanoma = test system: M14 melanoma
OVCAR-4 ovarian = test system: OVCAR-4 ovarian
SK-MEL-28 melanoma = test system: SK-MEL-28 melanoma
MALME-3M melanoma = test system: MALME-3M melanoma
K-562 leukemia = test system: K-562 leukemia
TK-10 renal = test system: TK-10 renal
SR leukemia = test system: SR leukemia
SK-MEL-2 melanoma = test system: SK-MEL-2 melanoma
HOP-92 NSCLC = test system: HOP-92 NSCLC
ACHN renal = test system: ACHN renal
HCT-15 colon = test system: HCT-15 colon
SNB-75 CNS = test system: SNB-75 CNS
NCI-H460 lung = test system: NCI-H460 lung
OVCAR-5 ovarian = test system: OVCAR-5 ovarian
EKVX NSCLC = test system: EKVX NSCLC
HCT-116 colon = test system: HCT-116 colon
SF-539 CNS = test system: SF-539 CNS
RPMI-8226 leukemia = test system: RPMI-8226 leukemia
786-0 renal = test system: 786-0 renal
HL-60(TB) leukemia = test system: HL-60(TB) leukemia
DMS 114 small cell lung = test system: DMS 114 small cell lung
COLO 205 colon = test system: COLO 205 colon
DMS 273 small cell lung = test system: DMS 273 small cell lung
U251 CNS = test system: U251 CNS
NCI-H522 lung = test system: NCI-H522 lung
LXFL 529 NSCLC = test system: LXFL 529 NSCLC

O=C1C(C(Nc2ccccc2)c2ccccc2)=C([O-])c2ccccc21.O=C1C(C(Nc2ccccc2)c2ccccc2)=C([O-])c2ccccc21.[Ni+2] (centres undefined)
9.82 µM: TGI (EKVX NSCLC)
7.45 µM: TGI (SK-MEL-5 melanoma)
54.8 µM: TGI (XF 498 CNS)
51 µM: TGI (UACC-62 melanoma)
55.6 µM: TGI (HOP-92 NSCLC)
66.4 µM: TGI (OVCAR-3 ovarian)
6.78 µM: TGI (SK-OV-3 ovarian)
94.7 µM: TGI (SNB-75 CNS)
inactive: GI50 (A498 renal) 7.57 µM | GI50 (HOP-18 NSCLC) 31.1 µM | GI50 (SK-OV-3 ovarian) 2.66 µM | GI50 (CAKI-1 renal) 28.8 µM | GI50 (DLD-1 colon) 4.2 µM | GI50 (KM12 colon) 4.01 µM | GI50 (HT29 colon) 4 µM | GI50 (OVCAR-8 ovarian) 4.43 µM | GI50 (SNB-19 CNS) 25.6 µM | GI50 (IGROV1 ovarian) 4.9 µM | GI50 (XF 498 CNS) 4.9 µM | GI50 (SN12C renal) 4.56 µM | GI50 (LOX IMVI melanoma) 5.81 µM | GI50 (NCI-H226 lung) 17.9 µM | GI50 (MOLT-4 leukemia) 3.71 µM | GI50 (HCC-2998 colon) 4.41 µM | GI50 (M19-MEL melanoma) 11 µM | GI50 (NCI-H23 lung) 5.23 µM | GI50 (KM20L2 colon) 24.4 µM | GI50 (SK-MEL-5 melanoma) 1.34 µM | GI50 (HOP-62 NSCLC) 14.2 µM | GI50 (SNB-78 CNS) 7.6 µM | GI50 (UACC-62 melanoma) 6.59 µM | GI50 (CCRF-CEM leukemia) 3.96 µM | GI50 (A549 NSCLC) 4.17 µM | GI50 (UO-31 renal) 11.5 µM | GI50 (RXF 393 renal) 4.9 µM | GI50 (SF-268 CNS) 3.35 µM | GI50 (SF-295 CNS) 3.69 µM | GI50 (SW-620 colon) 5.3 µM | GI50 (OVCAR-3 ovarian) 22.2 µM | GI50 (UACC-257 melanoma) 42.3 µM | GI50 (M14 melanoma) 7.99 µM | GI50 (OVCAR-4 ovarian) 16.5 µM | GI50 (SK-MEL-28 melanoma) 9.95 µM | GI50 (MALME-3M melanoma) 7.91 µM | GI50 (K-562 leukemia) 3.59 µM | GI50 (TK-10 renal) 12.8 µM | GI50 (SR leukemia) 3.72 µM | GI50 (SK-MEL-2 melanoma) 3.32 µM | GI50 (HOP-92 NSCLC) 6.14 µM | GI50 (ACHN renal) 7.81 µM | GI50 (HCT-15 colon) 4.09 µM | GI50 (SNB-75 CNS) 6.34 µM | GI50 (NCI-H460 lung) 4.46 µM | GI50 (OVCAR-5 ovarian) 3.55 µM | GI50 (EKVX NSCLC) 3.33 µM | GI50 (HCT-116 colon) 3.05 µM | GI50 (SF-539 CNS) 3.66 µM
49.5 µM: TGI (OVCAR-5 ovarian)
15.2 µM: TGI (SK-MEL-2 melanoma)
> 100 µM: TGI (A498 renal) | TGI (HOP-18 NSCLC) | TGI (CAKI-1 renal) | TGI (DLD-1 colon) | TGI (KM12 colon) | TGI (HT29 colon) | TGI (OVCAR-8 ovarian) | TGI (IGROV1 ovarian) | TGI (SN12C renal) | TGI (LOX IMVI melanoma) | TGI (NCI-H226 lung) | TGI (MOLT-4 leukemia) | TGI (HCC-2998 colon) | TGI (M19-MEL melanoma) | TGI (NCI-H23 lung) | TGI (HOP-62 NSCLC) | TGI (SNB-78 CNS) | TGI (CCRF-CEM leukemia) | TGI (A549 NSCLC) | TGI (UO-31 renal) | TGI (SF-268 CNS) | TGI (SF-295 CNS) | TGI (SW-620 colon) | TGI (UACC-257 melanoma) | TGI (M14 melanoma) | TGI (OVCAR-4 ovarian) | TGI (SK-MEL-28 melanoma) | TGI (MALME-3M melanoma) | TGI (K-562 leukemia) | TGI (TK-10 renal) | TGI (SR leukemia) | TGI (ACHN renal) | TGI (HCT-15 colon) | TGI (NCI-H460 lung) | TGI (HCT-116 colon) | TGI (SF-539 CNS)
85 µM: TGI (RXF 393 renal)
77.7 µM: TGI (KM20L2 colon)
56.7 µM: TGI (SNB-19 CNS)

C/C=C/C1(C)/C(=N\O)C(C)(CCC)C(=O)N1O (centres undefined)
> 100 µM: TGI (A498 renal) | TGI (SK-OV-3 ovarian) | TGI (CAKI-1 renal) | TGI (DLD-1 colon) | TGI (KM12 colon) | TGI (RPMI-8226 leukemia) | TGI (HT29 colon) | TGI (OVCAR-8 ovarian) | TGI (SNB-19 CNS) | TGI (IGROV1 ovarian) | TGI (786-0 renal) | TGI (XF 498 CNS) | TGI (SN12C renal) | TGI (LOX IMVI melanoma) | TGI (HL-60(TB) leukemia) | TGI (NCI-H226 lung) | TGI (MOLT-4 leukemia) | TGI (HCC-2998 colon) | TGI (M19-MEL melanoma) | TGI (NCI-H23 lung) | TGI (KM20L2 colon) | TGI (SK-MEL-5 melanoma) | TGI (HOP-62 NSCLC) | TGI (SNB-78 CNS) | TGI (UACC-62 melanoma) | TGI (CCRF-CEM leukemia) | TGI (A549 NSCLC) | TGI (DMS 114 small cell lung) | TGI (UO-31 renal) | TGI (RXF 393 renal) | TGI (SF-295 CNS) | TGI (SW-620 colon) | TGI (OVCAR-3 ovarian) | TGI (UACC-257 melanoma) | TGI (COLO 205 colon) | TGI (M14 melanoma) | TGI (OVCAR-4 ovarian) | TGI (DMS 273 small cell lung) | TGI (SK-MEL-28 melanoma) | TGI (U251 CNS) | TGI (MALME-3M melanoma) | TGI (K-562 leukemia) | TGI (TK-10 renal) | TGI (SR leukemia) | TGI (SK-MEL-2 melanoma) | TGI (NCI-H522 lung) | TGI (HOP-92 NSCLC) | TGI (ACHN renal) | TGI (HCT-15 colon) | TGI (SNB-75 CNS) | TGI (NCI-H460 lung) | TGI (LXFL 529 NSCLC) | TGI (OVCAR-5 ovarian) | TGI (EKVX NSCLC) | TGI (HCT-116 colon) | TGI (SF-539 CNS)
